The values that follow come from publication PMC7496730, “Peptide-PAINT Super-Resolution Imaging Using Transient Coiled Coil Interactions” (Nano Letters, 2020).

The test has as its target E3 peptide (21 amino acid). Kind of test: E/K coiled coil stability (length dependence, Figure S1), E3/K3 complex. In kind it is binding. To be noted: 21 aa long E3 and K3 peptides. The procedure:
The PAINT process requires a dynamic equilibrium between bound and unbound states of the fluorescently labeled imager probe. In DNA-PAINT, this is achieved when the transiently formed duplexes have stabilities in the micromolar range (KD ≈ 1 μM). The interaction between the 21 amino acid (aa) long E3 and K3 peptides previously used for protein imaging[20]−[23] leads to a coiled coil complex with nanomolar stability (KD ≈ 20 nM, Figure S1). Aiming for the identification of a suitable weaker affinity, we investigated the length dependence of coiled coil stability (Figure S1).

As usually defined, the Kd is a measure of binding affinity in units of concentration.

Residues, ends and D or L forms follow the SMILES beside them.

On to `CC[C@H](C)[C@H](NC(=O)[C@H](CCCCN)NC(C)=O)C(=O)N[C@@H](C)C(=O)N[C@@H](C)C(=O)N[C@@H](CC(C)C)C(=O)N[C@@H](CCCCN)C(=O)N[C@@H](CCC(=O)O)C(=O)N[C@@H](CCCCN)C(=O)N[C@H](C(=O)N[C@@H](C)C(=O)N[C@@H](C)C(=O)N[C@@H](CC(C)C)C(=O)N[C@@H](CCCCN)C(=O)N[C@@H](CCC(=O)O)C(=O)N[C@@H](CCCCN)C(=O)N[C@H](C(=O)N[C@@H](C)C(=O)N[C@@H](C)C(=O)N[C@@H](CC(C)C)C(=O)N[C@@H](CCCCN)C(=O)N[C@@H](CCC(=O)O)C(N)=O)[C@@H](C)CC)[C@@H](C)CC` [K3] (Ac-KIAALKEKIAALKEKIAALKE-NH2), for which the Kd is roughly 20 nM.
